One experiment has as its target T1, purified DNA-PK (Homo sapiens, UniProt P78527).
T1 construct: purified DNA-PK (from HeLa cells and human placenta) was tested; purchased Promega; host or cells: HeLa cells and human placenta
Description: Purified DNA-PK phosphorylation of PKB (FSY peptide / GST-PKBα419-480). To be noted: FSY peptide and GST-PKBα419-480; staurosporine 5 μM (FIGS. 2A and B). Type of experiment: biochemical. Here is the method:
FIG. 2. DNA-PK phosphorylates and activates PKB in vitro. (A) Purified DNA-PK (Promega) (25 units) was assayed with 0.1 mg/ml of FSY, FAY and DNA-PK p53 substrate peptide (CTL) in the presence (+) or absence (−) of DNA. […]; aliquots of the reaction mixture were removed for assay of PKB activity as described in FIG. 1D or for Western blotting with pS473 and pT308 phospho-specific antibodies. (D) GST-PKBα419-480 and His-p53 (each 1 μg) were incubated with 25 units of purified DNA-PK and 100 μM [γ-32P]ATP in kinase buffer (11). The reactions were terminated and analyzed on 10% SDS-PAGE followed by autoradiography or 32P determination in excised gel slices.
An antibody specific for PKB phosphorylated on Thr-308 (pT308) was purchased from Cell Signaling Technologies. An antibody specific for PKB phosphorylated on Ser-473 (pS473) was produced and purified as previously described (33). Polyclonal anti-PKB antibody (antibody10) (34) and monoclonal anti-PKB (A4D6) (35) have been described previously. Anti-Ku80, and anti-Ku 70 antibodies were purchased from Transduction Labs. Anti-DNA-PKcs (monoclonal G4) was from Santa Cruz Inc. Double-stranded fetal calf thymus DNA was from Sigma, and purified human DNA-PK protein and p53 substrate peptide […] (36) from Promega. […]

The target of the next experiment is T2, S473K1 (Homo sapiens, UniProt P78527).
T2 construct: purification and identification of this kinase from HEK293 cells; endogenous in cells; host or cells: HEK293 crude membrane fraction, purified over Q-Sepharose, Mono S and Mono Q
T2 sequence (P78527 whole entry, one chain of several): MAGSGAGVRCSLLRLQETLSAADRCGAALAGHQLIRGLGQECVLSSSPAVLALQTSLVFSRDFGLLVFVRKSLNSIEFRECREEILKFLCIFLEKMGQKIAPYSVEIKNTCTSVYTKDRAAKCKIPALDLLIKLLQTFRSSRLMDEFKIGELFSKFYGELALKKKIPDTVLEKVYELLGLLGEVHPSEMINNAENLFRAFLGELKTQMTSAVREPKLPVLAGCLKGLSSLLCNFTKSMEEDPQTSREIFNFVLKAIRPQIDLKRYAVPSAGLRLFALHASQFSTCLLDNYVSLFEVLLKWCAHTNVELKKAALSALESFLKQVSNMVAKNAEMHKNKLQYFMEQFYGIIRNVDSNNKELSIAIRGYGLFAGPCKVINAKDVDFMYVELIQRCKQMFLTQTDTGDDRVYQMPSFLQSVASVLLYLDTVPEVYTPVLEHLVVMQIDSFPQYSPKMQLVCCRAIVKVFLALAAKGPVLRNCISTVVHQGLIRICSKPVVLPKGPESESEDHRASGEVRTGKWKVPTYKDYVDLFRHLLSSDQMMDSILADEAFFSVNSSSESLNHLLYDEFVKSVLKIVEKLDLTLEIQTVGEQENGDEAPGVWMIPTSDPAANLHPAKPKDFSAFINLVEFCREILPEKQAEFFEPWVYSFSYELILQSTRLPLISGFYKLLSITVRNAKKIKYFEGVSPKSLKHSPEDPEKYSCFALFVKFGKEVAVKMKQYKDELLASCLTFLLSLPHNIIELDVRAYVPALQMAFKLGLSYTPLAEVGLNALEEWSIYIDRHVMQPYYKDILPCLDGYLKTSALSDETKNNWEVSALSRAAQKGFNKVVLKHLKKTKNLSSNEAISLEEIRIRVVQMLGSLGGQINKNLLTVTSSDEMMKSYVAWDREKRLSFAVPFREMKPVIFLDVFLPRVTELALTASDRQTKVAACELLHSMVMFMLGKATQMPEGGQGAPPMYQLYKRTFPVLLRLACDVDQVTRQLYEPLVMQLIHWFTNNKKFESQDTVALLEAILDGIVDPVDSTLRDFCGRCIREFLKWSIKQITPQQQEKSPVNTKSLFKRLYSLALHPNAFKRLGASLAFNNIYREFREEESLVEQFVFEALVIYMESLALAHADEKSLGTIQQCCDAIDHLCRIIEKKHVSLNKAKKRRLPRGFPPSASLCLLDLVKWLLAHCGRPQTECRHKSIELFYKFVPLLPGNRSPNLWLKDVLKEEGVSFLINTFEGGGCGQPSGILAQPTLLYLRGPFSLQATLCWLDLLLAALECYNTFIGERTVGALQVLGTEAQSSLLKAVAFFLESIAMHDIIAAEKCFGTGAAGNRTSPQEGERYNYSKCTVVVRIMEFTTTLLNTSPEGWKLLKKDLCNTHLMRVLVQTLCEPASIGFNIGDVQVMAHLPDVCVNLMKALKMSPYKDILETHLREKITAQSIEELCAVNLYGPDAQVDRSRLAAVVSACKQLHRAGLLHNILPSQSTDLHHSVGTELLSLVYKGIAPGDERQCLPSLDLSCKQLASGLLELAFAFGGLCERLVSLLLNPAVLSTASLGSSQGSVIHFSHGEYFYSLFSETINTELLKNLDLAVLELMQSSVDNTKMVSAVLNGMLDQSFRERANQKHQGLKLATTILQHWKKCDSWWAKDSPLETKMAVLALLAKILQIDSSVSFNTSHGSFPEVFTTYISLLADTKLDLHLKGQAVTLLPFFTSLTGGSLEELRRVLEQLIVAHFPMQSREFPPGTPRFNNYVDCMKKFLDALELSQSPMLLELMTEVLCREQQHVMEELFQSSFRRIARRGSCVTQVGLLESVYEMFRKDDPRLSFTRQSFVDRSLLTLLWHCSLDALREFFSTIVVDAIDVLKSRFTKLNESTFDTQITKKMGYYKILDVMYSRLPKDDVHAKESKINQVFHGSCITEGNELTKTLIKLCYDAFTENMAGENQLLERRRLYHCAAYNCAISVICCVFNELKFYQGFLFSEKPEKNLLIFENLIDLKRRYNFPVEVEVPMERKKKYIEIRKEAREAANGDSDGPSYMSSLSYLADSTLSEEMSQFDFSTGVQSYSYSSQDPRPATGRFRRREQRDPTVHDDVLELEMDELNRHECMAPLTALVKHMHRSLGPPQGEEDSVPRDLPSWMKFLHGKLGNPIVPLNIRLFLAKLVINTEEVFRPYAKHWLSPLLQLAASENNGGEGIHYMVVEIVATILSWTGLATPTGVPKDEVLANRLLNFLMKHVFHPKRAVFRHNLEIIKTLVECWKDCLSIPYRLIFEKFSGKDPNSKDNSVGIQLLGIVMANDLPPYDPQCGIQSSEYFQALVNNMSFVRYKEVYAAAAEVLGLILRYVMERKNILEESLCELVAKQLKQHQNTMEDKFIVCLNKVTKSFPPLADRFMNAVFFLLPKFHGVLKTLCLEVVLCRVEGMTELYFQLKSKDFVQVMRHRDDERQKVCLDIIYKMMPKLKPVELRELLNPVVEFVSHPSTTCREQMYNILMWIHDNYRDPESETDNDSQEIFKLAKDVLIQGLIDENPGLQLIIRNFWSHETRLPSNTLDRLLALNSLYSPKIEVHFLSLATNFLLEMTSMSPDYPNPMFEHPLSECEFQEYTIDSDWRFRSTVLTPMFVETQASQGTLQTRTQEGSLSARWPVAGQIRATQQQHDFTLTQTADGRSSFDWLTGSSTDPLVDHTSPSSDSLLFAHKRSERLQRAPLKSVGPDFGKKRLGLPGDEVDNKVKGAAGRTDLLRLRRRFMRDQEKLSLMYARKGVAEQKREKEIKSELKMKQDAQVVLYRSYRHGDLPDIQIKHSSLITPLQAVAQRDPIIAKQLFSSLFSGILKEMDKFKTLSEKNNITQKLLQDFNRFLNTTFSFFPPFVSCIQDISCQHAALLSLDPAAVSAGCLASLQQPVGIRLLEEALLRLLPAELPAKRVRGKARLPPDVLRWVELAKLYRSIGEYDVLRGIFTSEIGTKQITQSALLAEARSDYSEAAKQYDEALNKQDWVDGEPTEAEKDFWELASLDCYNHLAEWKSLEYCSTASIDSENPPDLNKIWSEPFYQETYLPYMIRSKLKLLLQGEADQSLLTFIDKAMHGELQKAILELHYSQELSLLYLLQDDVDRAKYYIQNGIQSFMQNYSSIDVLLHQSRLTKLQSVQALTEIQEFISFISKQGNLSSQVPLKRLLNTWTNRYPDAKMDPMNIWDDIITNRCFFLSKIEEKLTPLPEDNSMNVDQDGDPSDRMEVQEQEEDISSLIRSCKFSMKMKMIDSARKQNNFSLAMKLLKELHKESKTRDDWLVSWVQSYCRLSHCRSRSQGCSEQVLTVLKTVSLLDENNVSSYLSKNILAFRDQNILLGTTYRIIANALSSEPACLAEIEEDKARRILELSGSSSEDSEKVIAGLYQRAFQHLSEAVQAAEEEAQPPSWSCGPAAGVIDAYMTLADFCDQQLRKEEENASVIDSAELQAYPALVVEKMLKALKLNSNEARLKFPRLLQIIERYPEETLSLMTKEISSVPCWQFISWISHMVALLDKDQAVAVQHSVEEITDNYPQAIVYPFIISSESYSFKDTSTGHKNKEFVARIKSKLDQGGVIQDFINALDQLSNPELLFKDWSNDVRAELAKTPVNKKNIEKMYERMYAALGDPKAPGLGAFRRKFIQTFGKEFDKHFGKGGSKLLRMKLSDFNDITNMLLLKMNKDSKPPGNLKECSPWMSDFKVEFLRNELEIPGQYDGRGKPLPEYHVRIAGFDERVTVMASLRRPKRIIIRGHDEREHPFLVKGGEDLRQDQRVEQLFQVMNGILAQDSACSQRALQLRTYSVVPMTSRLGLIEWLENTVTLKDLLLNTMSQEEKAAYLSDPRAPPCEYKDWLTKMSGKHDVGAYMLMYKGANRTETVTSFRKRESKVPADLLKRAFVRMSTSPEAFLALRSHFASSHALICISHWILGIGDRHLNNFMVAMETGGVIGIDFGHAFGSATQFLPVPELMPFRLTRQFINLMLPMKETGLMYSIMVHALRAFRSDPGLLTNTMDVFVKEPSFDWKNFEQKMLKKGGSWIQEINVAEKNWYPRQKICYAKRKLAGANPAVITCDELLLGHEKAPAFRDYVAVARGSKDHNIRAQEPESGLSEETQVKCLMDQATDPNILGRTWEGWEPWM
Put plainly: S473K1 (Mono Q fraction 27) kinase assay with FSY peptide plus DNA, or GST-PKBα419-480 and pS473 Western blot. Type of experiment: biochemical. To be noted: LY294002 5 μM, wortmannin 2 μM, staurosporine 5 μM; FSY peptide in presence of DNA and GST-PKBα419-480 (FIGS. 1E and F). The protocol:
FIG. 1. Identification and purification of S473K. (A-C) Mono Q fractions were assayed for S473K activity with the FSY (solid) or FAY peptides (open) in the presence (triangles) or absence (circles) of DNA. […] (B) A 10-μl aliquot of each fraction was subjected to 8% SDS-PAGE and proteins visualized by Coomassie Blue staining. (C) Western blotting of fractions with anti-DNA-PKcs and anti-Ku80/Ku70 antibodies. (D) Recombinant ΔPH-PKBαT309P (PKB) was first incubated with S473K1 (5 μl), 10 μg/ml fetal calf thymus DNA, and 100 μM ATP in kinase buffer for different times. Aliquots of the reaction mixture were removed for assay of PKB activity as described in (11) or for Western blotting with pS473 and pT308 phospho-specific antibodies. […].
All steps were performed at 4° C. Four hundred plates (Ø […]) of HEK293 cells were harvested in ice-cold phosphate-buffered saline and homogenized in ice-cold buffer A (50 mM Tris-HCl pH 7.4, 300 mM sucrose, 1 mM dithiothreitol, 10 mM sodium fluoride, 0.1 mM sodium orthovanadate, 20 nM okadiac acid, 1 mM phenylmethanesulfonyl fluoride and 1 mM benzamidine) using a polytron homogenizer. The nuclear fraction was removed by centrifuging at 1000 g for 10 min and the resulting supernatant was further centrifuged at 100,000 g for 60 min. […]

The next experiment concerns DNA-PK. To be noted: through proteolytic degradation of DNA-PK (ref. 31); cited from earlier work.
Another experiment relates to PKB. To be noted: cisplatin treatment (ref. 32); cited from earlier work.

On to `CN[C@@H]1C[C@H]2O[C@@](C)([C@@H]1OC)n1c3ccccc3c3c4c(c5c6ccccc6n2c5c31)C(=O)NC4` [staurosporine], for which the “phosphorylation of PKB catalyzed by purified DNA-PK” value on purified DNA-PK is given as “resistant”. In addition, on S473K1, the S473K1 activity result was “not affected”.

Regarding `N.N.[Cl][Pt][Cl]` [cisplatin], the DNA-PK activity entry in the experiment with DNA-PK is reported as “decrease”. Besides, the “PKB activity and Ser-473 phosphorylation” value in the experiment with PKB is recorded as “inhibited”.

The record behind these values is US20080038277A1, “Dna Pkinase Inhibitors For Treating Cancer And Diabetes” (priority 2004, published 2008).
